The test system of assay [1] is Staphylococcus aureus. As to conditions: MTCC 3160, 50 ug/mL.
Description: Antimicrobial activity against Staphylococcus aureus MTCC 3160 at 50 ug/mL after 12 hrs by well diffusion method
The subject of assay [2] is Salmonella typhimurium. The experiment in a line: Antimicrobial activity against Salmonella typhimurium MTCC 3732 at 100 ug/mL after 12 hrs by well diffusion method. Format: functional, Salmonella enterica subsp. enterica serovar Typhimurium. As to conditions: for zone of inhibition at 100 µg/mL: Salmonella enterica, MTCC 3732, 12 h, read-out: DIZ; for diameter of the inhibition zone (DIZ): Salmonella enterica subsp. enterica serovar Typhimurium. Background: Agar diffusion results depend on both activity and mobility in agar.

The subject of assay [3] is Staphylococcus aureus. The experiment in a line: Antimicrobial activity against Staphylococcus aureus MTCC 3160 at 100 ug/mL after 12 hrs by well diffusion method. In kind it is functional. As to conditions: for zone of inhibition at 100 µg/mL: MTCC 3160, 12 h, read-out: DIZ.
In assay [4] the test system is Pseudomonas aeruginosa. The experiment in a line: Antimicrobial activity against Pseudomonas aeruginosa MTCC 4673 after 12 hrs by well diffusion method. Format: functional. As to conditions: MTCC 4673, 12 h.
Assay [5] has as its system Mycolicibacterium smegmatis. The experiment in a line: Antimicrobial activity against Mycobacterium smegmatis MTCC 943 at 50 ug/mL after 12 hrs by well diffusion method. Format: functional. Particulars: for zone of inhibition at 50 µg/mL: MTCC 943, 12 h, read-out: DIZ.
Assay [6] has as its system Salmonella typhimurium. The experiment in a line: Antimicrobial activity against Salmonella typhimurium MTCC 3732 at 50 ug/mL after 12 hrs by well diffusion method. Format: functional, Salmonella enterica subsp. enterica serovar Typhimurium. As to conditions: for zone of inhibition at 50 µg/mL: Salmonella enterica, MTCC 3732, 12 h, read-out: DIZ; for diameter of the inhibition zone (DIZ): Salmonella enterica subsp. enterica serovar Typhimurium.

In assay [7] the test system is Mycolicibacterium smegmatis. The experiment in a line: Antimicrobial activity against Mycobacterium smegmatis MTCC 943 after 12 hrs by well diffusion method. As to conditions: MTCC 943, 12 h. Format: functional.
In assay [8] the test system is Candida albicans. Nature of the assay: Antimicrobial activity against Candida albicans MTCC 183 at 50 ug/mL after 12 hrs by well diffusion method. Format: functional. As to conditions: for zone of inhibition at 50 µg/mL: MTCC 183, 12 h, read-out: DIZ.
Assay [9] concerns Mycolicibacterium smegmatis. Nature of the assay: Antimicrobial activity against Mycobacterium smegmatis MTCC 943 at 100 ug/mL after 12 hrs by well diffusion method. In kind it is functional. As to conditions: for zone of inhibition at 100 µg/mL: MTCC 943, 12 h, read-out: DIZ.
The test system of assay [10] is Candida albicans. Nature of the assay: Antimicrobial activity against Candida albicans MTCC 183 at 100 ug/mL after 12 hrs by well diffusion method. In kind it is functional. Particulars: for zone of inhibition at 100 µg/mL: MTCC 183, 12 h, read-out: DIZ.
In assay [11] the test system is Pseudomonas aeruginosa. Nature of the assay: Antimicrobial activity against Pseudomonas aeruginosa MTCC 4673 at 50 ug/mL after 12 hrs by well diffusion method. Format: functional. Particulars: for zone of inhibition at 50 µg/mL: MTCC 4673, 12 h, read-out: DIZ.
Assay [12] relates to Staphylococcus aureus. Nature of the assay: Antimicrobial activity against Staphylococcus aureus MTCC 3160 after 12 hrs by well diffusion method. In kind it is functional. Particulars: MTCC 3160, 12 h.
The test system of assay [13] is Candida albicans. Nature of the assay: Antimicrobial activity against Candida albicans MTCC 183 after 12 hrs by well diffusion method. In kind it is functional. Particulars: MTCC 183, 12 h.
In assay [14] the test system is Salmonella typhimurium. Nature of the assay: Antimicrobial activity against Salmonella typhimurium MTCC 3732 after 12 hrs by well diffusion method. Format: functional, Salmonella enterica subsp. enterica serovar Typhimurium. As to conditions: Salmonella enterica, MTCC 3732, 12 h.
Assay [15] relates to Pseudomonas aeruginosa. The experiment in a line: Antimicrobial activity against Pseudomonas aeruginosa MTCC 4673 at 100 ug/mL after 12 hrs by well diffusion method. In kind it is functional. As to conditions: for zone of inhibition at 100 µg/mL: MTCC 4673, 12 h, read-out: DIZ.

SMILES strings stand for the structures. In brackets after ≈: the same amount, converted by molar mass. Activity calls are given as the source filed them. No cut-off for these calls is given here.

We go through 13 compounds from ChEMBL document CHEMBL2424533, “Design and regioselective synthesis of trifluoromethylquinolone derivatives as potent antimicrobial agents” (2013).

For `C#CCn1cc(C(=O)OCC)c(=O)c2ccc(C(F)(F)F)cc21`, in assay [1], the DIZ entry was “inactive”. The zone of inhibition at 100 µg/mL was found to be 11 mm in [2]; 9 mm in assay [3]; 9 mm in assay [9]; 8.33 mm in assay [10]; 8 mm in assay [15]. Moreover, the MIC (usually the lowest concentration that inhibits growth of the organism) is 50 µg/mL (≈ 155 µM) in assay [4]; 100 µg/mL (≈ 309 µM) in [7]; 100 µg/mL (≈ 309 µM) in assay [12]; 100 µg/mL (≈ 309 µM) in assay [13]; 25 µg/mL (≈ 77.3 µM) in [14]. For the same compound, the “diameter of the inhibition zone (DIZ)” value in assay [5] and in [8] was “inactive” each time. Further, the zone of inhibition at 50 µg/mL in [6] was found to be 10.3 mm; in assay [11] it was 7 mm.
Turning to `C#CCn1cc(C(=O)O)c(=O)c2ccc(C(F)(F)F)cc21`, in assay [1], the DIZ entry was “inactive”. Further, the zone of inhibition at 100 µg/mL in assay [2] turned out to be 8 mm; in assay [3], 10 mm; in assay [9], 7 mm; in assay [10] it was 12 mm. Moreover, the MIC in assay [4] was more than 100 µg/mL; in assay [7], 100 µg/mL (≈ 339 µM); in assay [12] it was 100 µg/mL (≈ 339 µM); in assay [13], 25 µg/mL (≈ 84.7 µM); in [14], 25 µg/mL (≈ 84.7 µM). The “diameter of the inhibition zone (DIZ)” value in [5], in assay [11] and in assay [15] was “inactive” throughout. The zone of inhibition at 50 µg/mL came to 8 mm in [6] and 12 mm in assay [8].
Regarding `C#CCn1cc(C(=O)O)c(=O)c2cccc(C(F)(F)F)c21`, the DIZ entry in assay [1] is “inactive”. The “diameter of the inhibition zone (DIZ)” value in [2], in [3], in [5], in assay [6], in assay [8] and in assay [9] was “inactive” throughout. Moreover, the “diameter of the inhibition zone (DIZ)” value in assay [10], in [11] and in [15] was “inactive” throughout.
On to `NNC(=O)c1cn(Cc2ccc(Cl)cc2Cl)c2cc(C(F)(F)F)ccc2c1=O`, for which, in [1], the DIZ entry was “inactive”. Also, the “diameter of the inhibition zone (DIZ)” value in assay [2], in assay [6] and in [8] was “inactive” each time. Besides, the zone of inhibition at 100 µg/mL in [3] is 8 mm; in assay [9], 9 mm; in assay [10] it was 7 mm; in assay [15], 8 mm. For the same compound, the MIC was 25 µg/mL (≈ 58.1 µM) in [4]; 25 µg/mL (≈ 58.1 µM) in assay [7]; 100 µg/mL (≈ 232 µM) in [12]; 100 µg/mL (≈ 232 µM) in assay [13]; more than 100 µg/mL in [14]. For the same compound, the zone of inhibition at 50 µg/mL in [5] turned out to be 9 mm; in assay [11] it was 8 mm.
On to `C#CCn1cc(C(=O)OCC)c(=O)c2cccc(C(F)(F)F)c21`, for which the DIZ result in assay [1] was “inactive”. The “diameter of the inhibition zone (DIZ)” value in assay [2], in [3], in [5], in assay [6], in [8] and in assay [9] was “inactive” throughout. Further, the “diameter of the inhibition zone (DIZ)” value in [10], in [11] and in [15] was “inactive” each time.
Consider `N#Cc1ccc(Cn2cc(C(=O)O)c(=O)c3ccc(C(F)(F)F)cc32)cc1`, for which the DIZ result in assay [1] was “inactive”. The “diameter of the inhibition zone (DIZ)” value in assay [2], in [3], in [5], in assay [6] and in [9] was “inactive” each time. The MIC was 25 µg/mL (≈ 67.1 µM) in assay [4]; more than 100 µg/mL in assay [7]; more than 100 µg/mL in assay [12]; 50 µg/mL (≈ 134 µM) in assay [13]; more than 100 µg/mL in assay [14]. For the same compound, the zone of inhibition at 50 µg/mL turned out to be 7.6 mm in [8] and 8 mm in [11]. In addition, the values for the zone of inhibition at 100 µg/mL in [10] and in assay [15] were 8.33 mm and 8 mm, respectively.
On to `C#CCn1cc(C(=O)NN)c(=O)c2cccc(C(F)(F)F)c21`, for which, in assay [1], the DIZ entry is “inactive”. Moreover, the “diameter of the inhibition zone (DIZ)” value in [2], in assay [3], in [5], in [6], in [8] and in assay [9] was “inactive” throughout. For the same compound, the “diameter of the inhibition zone (DIZ)” value in [10], in assay [11] and in assay [15] was “inactive” throughout.
Regarding `O=C(O)c1cn(Cc2ccc(Cl)cc2Cl)c2cc(C(F)(F)F)ccc2c1=O`, the DIZ entry in assay [1] is “inactive”. The “diameter of the inhibition zone (DIZ)” value in assay [2], in assay [5], in assay [6], in assay [8], in assay [9] and in [11] was “inactive” each time. Also, in assay [15], the “diameter of the inhibition zone (DIZ)” value was “inactive”. The zone of inhibition at 100 µg/mL worked out at 10 mm in [3] and 7 mm in [10]. In addition, the MIC is more than 100 µg/mL in [4]; more than 100 µg/mL in [7]; 100 µg/mL (≈ 240 µM) in assay [12]; 50 µg/mL (≈ 120 µM) in [13]; more than 100 µg/mL in assay [14].
Regarding `CCOC(=O)c1cn(Cc2ccc(C#N)cc2)c2c(C(F)(F)F)cccc2c1=O`, the DIZ entry in [1] is “inactive”. For the same compound, the “diameter of the inhibition zone (DIZ)” value in assay [2], in [3], in [5], in [6], in assay [8] and in assay [9] was “inactive” throughout. Also, the “diameter of the inhibition zone (DIZ)” value in assay [10], in [11] and in [15] was “inactive” throughout.
On to `O=C(O)c1cn(Cc2ccc(Cl)cc2Cl)c2c(C(F)(F)F)cccc2c1=O`, for which, in assay [1], the DIZ result is “inactive”. For the same compound, the “diameter of the inhibition zone (DIZ)” value in [2] and in assay [6] was “inactive” each time. The zone of inhibition at 100 µg/mL in assay [3] stood at 9 mm; in assay [9], 12 mm; in [10], 9 mm; in [15], 14 mm. Further, the MIC in [4] was 25 µg/mL (≈ 60.1 µM); in [7], 25 µg/mL (≈ 60.1 µM); in assay [12], 100 µg/mL (≈ 240 µM); in [13] it was 50 µg/mL (≈ 120 µM); in assay [14], more than 100 µg/mL. In addition, the zone of inhibition at 50 µg/mL in assay [5] is 11 mm; in [8], 7 mm; in assay [11], 13.6 mm.
For `OC(Cn1cncn1)(Cn1cncn1)c1ccc(F)cc1F` [FLUCONAZOLE], the zone of inhibition at 50 µg/mL in [8] came to 26.3 mm. In assay [10], the zone of inhibition at 100 µg/mL turned out to be 29 mm. In assay [13], this compound returned an MIC of less than 10 µg/mL.
Take `N#Cc1ccc(Cn2cc(C(=O)O)c(=O)c3cccc(C(F)(F)F)c32)cc1`: the DIZ result in [1] was “inactive”. The “diameter of the inhibition zone (DIZ)” value in assay [2], in assay [5], in assay [6], in [8] and in assay [9] was “inactive” each time. Moreover, the zone of inhibition at 100 µg/mL in assay [3], in [10] and in assay [15] was 8 mm throughout. Also, the MIC is 25 µg/mL (≈ 67.1 µM) in assay [4]; more than 100 µg/mL in assay [7]; 100 µg/mL (≈ 269 µM) in assay [12]; 100 µg/mL (≈ 269 µM) in assay [13]; more than 100 µg/mL in assay [14]. In addition, the zone of inhibition at 50 µg/mL in [11] was 8 mm.
Consider `CCOC(=O)c1cn(Cc2ccc(Cl)cc2Cl)c2cc(C(F)(F)F)ccc2c1=O`, for which the DIZ entry in [1] was “inactive”. Moreover, the “diameter of the inhibition zone (DIZ)” value in assay [2], in [3], in assay [5], in assay [6], in [8] and in assay [9] was “inactive” in each case. The “diameter of the inhibition zone (DIZ)” value in assay [10], in assay [11] and in assay [15] was “inactive” each time.
